Laboratory results reported in patent publication US12653186B2, “[(1-phenyl-5-(heteroaryl)-1H-1,2,4-triazol-3-yl)oxy] acetic acid derivatives as safeners for the protection of useful plants and crop plants” (BAYER AKTIENGESELLSCHAFT, priority 2020, dated 2026).

Experiments:
summer barley (HORVS) = assay: Reduction of damage by mesosulfuron-methyl on summer barley (safener action, greenhouse, post-emergence); type: in vivo, summer barley (HORVS; cv. Montoya); design: key: 0: no reduction in damage (appearance corresponding to the herbicide control); 1: slight reduction in damage; 2: distinct reduction in damage; 3: significant reduction in damage; 4: complete reduction in damage (appearance corresponding to the untreated control); conditions: then mesosulfuron-methyl 40-60 g/ha, visual assessment 9-13 days after application, 2 repeats
Description: (§1) 2.2 Relative Action of Selected Compounds of the Invention Using the Example of Reduction of Damage by Mesosulfuron-Methyl on Summer Barley (HORVS) The seeds of the crop plants to be treated are laid out in sandy loam in plastic pots (diameter ˜4 cm), covered with soil and grown in a greenhouse under good conditions for germination and growth. The trial plants were treated at the early leaf stage (BBCH10-BBCH12). In the course of this, the inventive compounds of the general formula (I) formulated in the form of wettable powders (WP) were sprayed onto the above-ground parts of the plants as an aqueous suspension with a water application rate corresponding to 800 l/ha with addition of wetting agent (e.g. 0.2% Genapol-LRO or 0.2% Mero) in the specified dose. This was followed by the application of the herbicide. For this purpose, mesosulfuron-methyl, formulated in the form of water-dispersible granules (WG), was sprayed onto the above-ground parts of the plants in the form of an aqueous dispersion with a water application rate corresponding to 800 l/ha with addition of wetting agent (e.g. 0.2% Genapol-LRO or 1 l/ha Biopower) in a dose of 40-60 g/ha. The dose of the herbicide was chosen here such that it causes visually apparent damage (min. 30%, max. 75%) compared to untreated crop plants at the evaluation time on a control group of crop plants without safener treatment that were included in the same trial. After application, the plants were cultivated under good growth conditions in a greenhouse. 9-13 days after application, the efficacy of the test compounds was assessed visually. For this purpose, the appearance of the plants treated with the test compound and herbicide was compared to the corresponding herbicide controls (without safener; with clearly visible damage) and the untreated controls (without damage). The damage-reducing effect of the test compounds was expressed here separately for 2 repeats in graded efficacy codes according to the following scheme: • 0: no reduction in damage (appearance corresponding to the herbicide control) • 1: slight reduction in damage • 2: distinct reduction in damage • 3: significant reduction in damage • 4: complete reduction in damage (appearance corresponding to the untreated control) The trials show clear efficacy of the inventive compounds selected by way of example with regard to the reduction in damage to the summer barley crop plant (HORVS; cv. Montoya) caused by the herbicide mesosulfuron-methyl: […]

summer wheat (TRZAS) = assay: Reduction of damage by mesosulfuron-methyl on summer wheat (safener action, greenhouse, post-emergence); type: in vivo, summer wheat (TRZAS; cv. Triso); design: key: 0: no reduction in damage (appearance corresponding to the herbicide control); 1: slight reduction in damage; 2: distinct reduction in damage; 3: significant reduction in damage; 4: complete reduction in damage (appearance corresponding to the untreated control); conditions: then mesosulfuron-methyl 40-60 g/ha, visual assessment 9-13 days after application
Description: as §1, with “2.1” for “2.2”, “Wheat (TRZAS)” for “Barley (HORVS)”, “here” for “here separately for 2 repeats”, “wheat” for “barley”, “(TRZAS;” for “(HORVS;”, “Triso)” for “Montoya)”

COC(=O)COc1nc(-c2ccc(Cl)cn2)n(-c2ccc(F)cc2F)n1 [I.28-38, Methyl {[5-(5-chloropyridin-2-yl)-1-(2,4-difluorophenyl)-1H-1,2,4-triazol-3-yl]oxy}acetate]
Efficacy of the safener (efficacy code) (summer barley (HORVS); safener 100 g/ha): 2

COC(=O)COc1nc(-c2ccc(Cl)cn2)n(-c2ccc(Cl)cc2F)n1 [I.28-49]
Efficacy of the safener (efficacy code) (summer wheat (TRZAS); safener 100 g/ha): 2
Efficacy of the safener (efficacy code) (summer barley (HORVS); safener 100 g/ha): 2

CCOC(=O)COc1nc(-c2ccc(Cl)cn2)n(-c2ccccc2F)n1 [I.29-2]
Efficacy of the safener (efficacy code) (summer wheat (TRZAS); safener 100 g/ha): 2

CCOC(=O)COc1nc(-c2ccc(Cl)cn2)n(-c2ccc(F)cc2F)n1 [I.29-38]
Efficacy of the safener (efficacy code) (summer wheat (TRZAS); safener 100 g/ha): 2
Efficacy of the safener (efficacy code) (summer barley (HORVS); safener 100 g/ha): 2

O=C(O)COc1nc(-c2ccc(Cl)cn2)n(-c2ccc(F)cc2F)n1 [I.30-38, {[5-(5-Chloropyridin-2-yl)-1-(2,4-difluorophenyl)-1H-1,2,4-triazol-3-yl]oxy}acetic acid]
Efficacy of the safener (efficacy code) (summer wheat (TRZAS); safener 100 g/ha): 2
Efficacy of the safener (efficacy code) (summer barley (HORVS); safener 100 g/ha): 2

COC(=O)COc1nc(-c2ccc(F)cn2)n(-c2ccc(Cl)cc2)n1 [I.31-7]
Efficacy of the safener (efficacy code) (summer wheat (TRZAS); safener 100 g/ha): 2
Efficacy of the safener (efficacy code) (summer barley (HORVS); safener 100 g/ha): 2

COC(=O)COc1nc(-c2ccc(F)cn2)n(-c2ccc(F)cc2F)n1 [I.31-38]
Efficacy of the safener (efficacy code) (summer wheat (TRZAS); safener 100 g/ha): 2

COC(=O)COc1nc(-c2ccc(F)cn2)n(-c2ccc(F)cc2Cl)n1 [I.31-48]
Efficacy of the safener (efficacy code) (summer wheat (TRZAS); safener 100 g/ha): 2
Efficacy of the safener (efficacy code) (summer barley (HORVS); safener 100 g/ha): 2

COC(=O)COc1nc(-c2ccc(F)cn2)n(-c2ccc(Cl)cc2F)n1 [I.31-49]
Efficacy of the safener (efficacy code) (summer wheat (TRZAS); safener 100 g/ha): 2
Efficacy of the safener (efficacy code) (summer barley (HORVS); safener 100 g/ha): 2

CCOC(=O)COc1nc(-c2ccc(F)cn2)n(-c2ccccc2F)n1 [I.32-2]
Efficacy of the safener (efficacy code) (summer wheat (TRZAS); safener 100 g/ha): 2

CCOC(=O)COc1nc(-c2ccc(F)cn2)n(-c2ccc(F)cc2)n1 [I.32-4]
Efficacy of the safener (efficacy code) (summer wheat (TRZAS); safener 100 g/ha): 2

CCOC(=O)COc1nc(-c2ccc(F)cn2)n(-c2ccc(Cl)cc2)n1 [I.32-7]
Efficacy of the safener (efficacy code) (summer wheat (TRZAS); safener 100 g/ha): 2
Efficacy of the safener (efficacy code) (summer barley (HORVS); safener 100 g/ha): 2-3

CCOC(=O)COc1nc(-c2ccc(F)cn2)n(-c2ccc(F)cc2F)n1 [I.32-38]
Efficacy of the safener (efficacy code) (summer wheat (TRZAS); safener 100 g/ha): 2
Efficacy of the safener (efficacy code) (summer barley (HORVS); safener 100 g/ha): 2

CCOC(=O)COc1nc(-c2ccc(F)cn2)n(-c2ccc(Cl)cc2F)n1 [I.32-49]
Efficacy of the safener (efficacy code) (summer wheat (TRZAS); safener 100 g/ha): 2
Efficacy of the safener (efficacy code) (summer barley (HORVS); safener 100 g/ha): 2

O=C(O)COc1nc(-c2ccc(F)cn2)n(-c2ccc(F)cc2)n1 [I.33-4]
Efficacy of the safener (efficacy code) (summer wheat (TRZAS); safener 100 g/ha): 2

O=C(O)COc1nc(-c2ccc(F)cn2)n(-c2ccc(Cl)cc2F)n1 [I.33-49]
Efficacy of the safener (efficacy code) (summer wheat (TRZAS); safener 100 g/ha): 2

COC(=O)COc1nc(-c2ccncc2Cl)n(-c2ccc(Cl)cc2F)n1 [I.43-49]
Efficacy of the safener (efficacy code) (summer barley (HORVS); safener 100 g/ha): 2

COC(=O)COc1nc(-c2ncccc2F)n(-c2ccccc2)n1 [I.64-1]
Efficacy of the safener (efficacy code) (summer wheat (TRZAS); safener 100 g/ha): 2
Efficacy of the safener (efficacy code) (summer wheat (TRZAS); safener 500 g/ha): 2
Efficacy of the safener (efficacy code) (summer barley (HORVS); safener 500 g/ha): 2

COC(=O)COc1nc(-c2ncccc2F)n(-c2ccc(Cl)cc2F)n1 [I.64-49]
Efficacy of the safener (efficacy code) (summer wheat (TRZAS); safener 500 g/ha): 2
Efficacy of the safener (efficacy code) (summer barley (HORVS); safener 500 g/ha): 2

COC(=O)CCOC(=O)COc1nc(-c2ccc(Cl)cn2)n(-c2ccc(F)cc2F)n1 [I.67-38]
Efficacy of the safener (efficacy code) (summer wheat (TRZAS); safener 100 g/ha): 2

O=C(COc1nc(-c2ccc(Cl)cn2)n(-c2ccc(F)cc2F)n1)OCC1CCCO1 (centres unmarked) [I.68-38]
Efficacy of the safener (efficacy code) (summer wheat (TRZAS); safener 100 g/ha): 2
Efficacy of the safener (efficacy code) (summer barley (HORVS); safener 100 g/ha): 2

O=C(COc1nc(-c2ccc(Cl)cn2)n(-c2ccc(F)cc2F)n1)OCC1CCOC1 (centres unmarked) [I.69-38]
Efficacy of the safener (efficacy code) (summer barley (HORVS); safener 100 g/ha): 2-3

O=C(COc1nc(-c2ccc(Cl)cn2)n(-c2ccc(F)cc2F)n1)OCC1OCCO1 [I.70-38]
Efficacy of the safener (efficacy code) (summer barley (HORVS); safener 100 g/ha): 2

COCCOC(=O)COc1nc(-c2ccc(Cl)cn2)n(-c2ccc(F)cc2F)n1 [I.73-38]
Efficacy of the safener (efficacy code) (summer barley (HORVS); safener 100 g/ha): 2-3

O=C(COc1nc(-c2ccc(Cl)cn2)n(-c2ccc(F)cc2F)n1)OCC1CC1 [I.80-38, Cyclopropylmethyl {[5-(5-chloropyridin-2-yl)-1-(2,4-difluorophenyl)-1H-1,2,4-triazol-3-yl]oxy}acetate]
Efficacy of the safener (efficacy code) (summer wheat (TRZAS); safener 100 g/ha): 2
